Source: patent publication US20230126711A1, “ENTERIC NITRERGIC NEURONS AND METHODS OF USING THE SAME” (The Regents of the University of California, priority 2020, published 2023)

Tested on: NOS1
Assay: Percentage of NO neurons in treated cultures by flow cytometry for NOS1
Type: cell-based, human
Conditions: flow cytometry for NOS1, compared to no treatment
Description: NO neurons quantified using flow cytometry for NOS1.
Option 1 (for 3-D Culture): • 30. On day 15, ENC spheroids are gathered in the center of the wells using a swirling motion and neural crest medium is removed using a P1000 micropipette in slow circular motion, avoiding the free-floating spheroids. • 31. Spheroids are fed with the same volume of ENC medium containing PP121 (1-5 μM), GDNF (10 ng/ml), ascorbic acid (100 μM), N2 supplement (10 μl/ml), B27 supplement (20 μl/ml), glutagro (10 μl/ml), and MEM NEAAs (10 μl/ml) in neurobasal medium. • 32. Cells are fed with ENC every other day until day 30-40, after which, feeding frequency can be reduced to once or twice a week but with a higher volume of medium.
Option 2 (for 2-D Culture): • 30. On day 15, ENC spheroids are gathered in the center of the wells using a swirling motion and neural crest medium is removed using a P1000 micropipette in slow circular motion, avoiding the free-floating spheroids. • 31. After washing the spheroids with PBS, accutase is added and plates are incubated for 30 minutes at 37° C. to dissociate the spheroids. • 32. Then, remaining spheroids are broken by pipetting ENC medium. • 33. ENC contains PP121 (1-5 μM), GDNF (10 ng/ml), ascorbic acid (100 μM), N2 supplement (10 μl/ml), B27 supplement (20 μl/ml), glutagro (10 μl/ml), and MEM NEAAs (10 μl/ml) in neurobasal medium. • 34. […]

Molecule	percentage of NO neurons (NOS1 induction)
Nc1ncnc2c1c(-c1cnc3[nH]ccc3c1)nn2C1CCCC1 [PP121]	enhances NOS1 induction efficiency
PDGF	reduced the percentage of NO neurons
